Laboratory results taken from patent US4705799A, “Aminomethyl oxooxazolidinyl benzenes useful as antibacterial agents” (E. I. Du Pont de Nemours and Company, priority 1985, dated 1987).
Values after ≈ are worked out from the molar mass of the structure shown. Structures can show the parent of a compound that is named as a salt.

Assays:
Escherichia coli = experiment: In vitro broth dilution minimal inhibitory concentration (standard microdilution method); assay type: cell-based; settings: Escherichia coli, Mueller-Hinton broth, 24-hour; for MIC: read-out: Microdilution Broth MIC
Staphylococcus aureus [1] = experiment: In vivo efficacy of orally administered compounds in mouse intraperitoneal infections; settings: mouse i.p. Staphylococcus aureus infection, oral, dosed at infection and 4 h post-infection, 7 days; for ED50: Staphylococcus aureus, po, 168 h, read-out: ED50 (50 percent effective dose); for ED50 (50 percent effective dose): 10080 min
Description: (§1) Determinations of in vivo efficacy are performed by inoculating mice intraperitoneally with cultures of the infecting organism diluted to produce 90-100% mortality in control animals within twenty-four hours. The diluents used were trypticase soy broth for E. coli and 5% aqueous hog gastric mucin for Staphylococcus aureus infections. The compounds are dissolved or suspended in 0.25% aqueous Methocel® (Methocel®: Hydroxypropyl Methylcellulose E15 Premium, Dow Chemical Company) for oral administration or sterile distilled water containing 5% dimethylsulfoxide (Fisher Scientific Company, Fairlawn, N.J.) for subcutaneous administration. The mice are dosed at the time of infection and again at four hours post-infection. Mortality is recorded daily until test termination seven days post infection and the 50 percent effective dose, ED50, is calculated by the Reed-Muench method (Reed, L. G. and Muench, H., "A simple method of estimating fifty percent end points," American Journal of Hygiene, 27, 493-497 (1938).

Staphylococcus aureus [2] = experiment: In vivo efficacy of compounds administered subcutaneously in mouse intraperitoneal infections; settings: mouse i.p. Staphylococcus aureus infection, subcutaneous, dosed at infection and 4 h post-infection, 7 days; for ED50: sc, 168 h, read-out: ED50 (50 percent effective dose); for ED50 (50 percent effective dose): 10080 min
Description: as §1

[3] = test system: Staphylococcus epidermidis; experiment: In vitro broth dilution minimal inhibitory concentration (standard microdilution method); assay type: cell-based; settings: Mueller-Hinton broth, 24-hour; for MIC: 24 h, read-out: Microdilution Broth MIC

SMILES | MIC (Escherichia coli) [µg/mL] | ED50 (Staphylococcus aureus [1]) [mg/kg] | ED50 (Staphylococcus aureus [2]) [mg/kg] | MIC [3] [µg/mL] | Microdilution Broth MIC (Escherichia coli) [µg/mL] | ED50 (50 percent effective dose) (Staphylococcus aureus [1]) [mg/kg] | ED50 (50 percent effective dose) (Staphylococcus aureus [2]) [mg/kg] | Microdilution Broth MIC [3] [µg/mL]
CON=C(C)c1ccc(N2CC(CNC(C)=O)OC2=O)cc1 (single isomer, unassigned) [Example 160, (l)-N-[3-(4-Acetylphenyl)-2-oxooxazolidin-5-ylmethyl]acetamide Oxime, methyl ether] | > 200 | < 4.4 | < 4.4 | 12.5 (≈ 40.9 µM) |  |  |  | 
CC(=O)NCC1CN(c2ccc(C(=O)C=CN(C)C)cc2)C(=O)O1 (single isomer, unassigned) [Example 162] | > 128 | 11.3 | 20.9 | 32 (≈ 96.6 µM) |  |  |  | 
CC(=O)NCC1CN(c2ccc(SCCO)cc2)C(=O)O1 (single isomer, unassigned) [Example 167, (l)-N-[3-[4-(2-Hydroxyethylthio)phenyl]-2-oxooxazolidin-5-ylmethyl]acetamide] | > 200 | 68.2 | 10.8 | 3.1 (≈ 9.99 µM) |  |  |  | 
CC(=O)c1ccc(N2CC(CN)OC2=O)cc1 (single isomer, unassigned) [Example 170, (l)-3-(4-Acetylphenyl)-5-(aminomethyl)-2-oxazolidinone hydrochloride] | > 128 | 32.3 | 25.3 | > 128 |  |  |  | 
CC(=O)NCC1CN(c2ccc(C(=O)COC(C)=O)cc2)C(=O)O1 (single isomer, unassigned) [Example 183, (l)-N-[3-[4-(Acetyloxyacetyl)phenyl]-2-oxo-5-oxazolidinylmethyl]acetamide] | 64 (≈ 191 µM) | 9.1 | 3.4 | 0.5 (≈ 1.5 µM) |  |  |  | 
COC(=O)c1ccc(N2CC(CNC(C)=O)OC2=O)cc1 (single isomer, unassigned) [Example 184, (l)-4-[(5-Acetylaminomethyl)-2-oxo-3-oxazolidinyl]benzoic acid methyl ester] | > 128 | > 60 | 37.5 | 4 (≈ 13.7 µM) |  |  |  | 
CC(=O)c1ccc(N2CC(CN=[N+]=[N-])OC2=O)cc1 (stereo not drawn) [Example 5] | > 200 | 172 | 41.2 | 200 (≈ 768 µM) |  |  |  | 
CC(C)c1ccc(N2CC(CN=[N+]=[N-])OC2=O)cc1 (stereo not drawn) [Example 7] | > 200 | 24.2 | 33.7 | 100 (≈ 384 µM) |  |  |  | 
CC(=O)c1ccc(N2CC(CN)OC2=O)cc1 (stereo not drawn) [Example 15] | > 200 | 40 | 24.9 | > 200 |  |  |  | 
CC(C)c1ccc(N2CC(CN)OC2=O)cc1 (stereo not drawn) [Example 17] | > 200 | > 120 | 24.9 | > 200 |  |  |  | 
CS(=O)(=O)c1ccc(N2CC(CNC(=O)c3ccccc3)OC2=O)cc1 (stereo not drawn) [Example 34] | > 200 | > 120 | 49.6 | 25 (≈ 66.8 µM) |  |  |  | 
COC(=O)NCC1CN(c2ccc(C(F)(F)F)cc2)C(=O)O1 (stereo not drawn) [Example 42] | > 200 | 45.5 | 20.9 | 100 (≈ 314 µM) |  |  |  | 
COC(=O)NCC1CN(c2ccc(S(N)(=O)=O)cc2)C(=O)O1 (stereo not drawn) [Example 45] | > 200 | > 120 | 9.6 | 37.5 (≈ 114 µM) |  |  |  | 
CSc1ccc(N2CC(CNC(=O)C3CC3)OC2=O)cc1 (stereo not drawn) [Example 71] | > 200 | > 120 | 69.3 | 50 (≈ 163 µM) |  |  |  | 
CS(=O)(=O)c1ccc(N2CC(CNC(=O)C3CC3)OC2=O)cc1 (stereo not drawn) [Example 72] | 200 (≈ 591 µM) | > 120 | 15.2 | 25 (≈ 73.9 µM) |  |  |  | 
CC(=O)NCC1CN(c2ccc(C)cc2)C(=O)O1 (stereo not drawn) [Example 79] | > 200 | 99.8 | 85.1 | 200 (≈ 806 µM) |  |  |  | 
CCCCc1ccc(N2CC(CNC(=O)OC)OC2=O)cc1 (stereo not drawn) [Example 80] | > 200 | 64 | 42.3 | 25 (≈ 81.6 µM) |  |  |  | 

SMILES | MIC (Escherichia coli) [µg/mL] | ED50 (Staphylococcus aureus [1]) [mg/kg] | ED50 (Staphylococcus aureus [2]) [mg/kg] | MIC [3] [µg/mL] | Microdilution Broth MIC (Escherichia coli) [µg/mL] | ED50 (50 percent effective dose) (Staphylococcus aureus [1]) [mg/kg] | ED50 (50 percent effective dose) (Staphylococcus aureus [2]) [mg/kg] | Microdilution Broth MIC [3] [µg/mL]
CC(=O)Cc1ccc(N2CC(CNC(C)=O)OC2=O)cc1 (stereo not drawn) [Example 99] | > 200 | 77.4 | 20.1 | 25 (≈ 86.1 µM) |  |  |  | 
CC(=O)NCC1CN(c2ccc(CC(C)O)cc2)C(=O)O1 (stereo not drawn) [Example 100] | > 200 | 19.5 | 10.5 | 12.5 (≈ 42.8 µM) |  |  |  | 
C=Cc1ccc(N2CC(CNC(C)=O)OC2=O)cc1 (stereo not drawn) [Example 101] | 128 (≈ 492 µM) | 10.6 | 4.8 | 4 (≈ 15.4 µM) |  |  |  | 
CC(=O)NCC1CN(c2ccc(C(C)(O)CO)cc2)C(=O)O1 (stereo not drawn) [Example 102] | > 128 | 24 | 9 | 16 (≈ 51.9 µM) |  |  |  | 
CC(=O)NCC1CN(c2ccc(C(C)(C)C)cc2)C(=O)O1 (stereo not drawn) [Example 105] | > 128 | 10.8 | 13.8 | 1 (≈ 3.44 µM) |  |  |  | 
CC(=O)NCC1CN(c2ccc(CCCO)cc2)C(=O)O1 (stereo not drawn) [Example 107] | > 128 | > 60 | 18.6 | 2 (≈ 6.84 µM) |  |  |  | 
CC(=O)NCC1CN(c2ccc(C(F)(F)C(F)(F)F)cc2)C(=O)O1 (stereo not drawn) [Example 108] | > 128 | 8.4 | 20.4 | 2 (≈ 5.68 µM) |  |  |  | 
COC(=O)NCC1CN(c2ccc(S(=O)(=O)N(C)OC)cc2)C(=O)O1 (stereo not drawn) [Example 116] | > 200 | 25.9 | 14.9 | 12.5 (≈ 33.5 µM) |  |  |  | 
COC(=O)N(C)CC1CN(c2ccc(S(C)(=O)=O)cc2)C(=O)O1 (stereo not drawn) [Example 128] | > 200 | 62 | 33.6 | > 200 |  |  |  | 
CC(=O)NCC1CN(c2ccc(C(=O)C(Br)(Br)Br)cc2)C(=O)O1 (stereo not drawn) [Example 140] | 128 (≈ 250 µM) | 6.6 | 13.2 | 4 (≈ 7.8 µM) |  |  |  | 
CC(=O)NCC1CN(c2ccc(C(=O)C3CCCCC3)cc2)C(=O)O1 (stereo not drawn) [Example 141] | > 128 | 40.2 | 20.8 | 8 (≈ 23.2 µM) |  |  |  | 
CCc1cc(N2CC(CNC(C)=O)OC2=O)ccc1C(C)=O (stereo not drawn) [Example 143] | > 128 | 20.8 | 11.9 | 16 (≈ 52.6 µM) |  |  |  | 
CC(=O)NCC1CN(c2ccc([S+]([O-])CCO)cc2)C(=O)O1 (stereo not drawn) [Example 168, (l)-N-[3-[4-(2-Hydroxyethylsulfinyl)phenyl]-2-oxo-oxazolidin-5-ylmethyl]acetamide] |  |  |  |  | > 200.0 | 49.8 | 24.3 | 25.0
CC(=O)NCC1CN(c2ccc([S+]([O-])CCO)cc2)C(=O)O1 (stereo not drawn) [Example 169, (l)-N-[3-[4-(2-Hydroxyethylsulfinyl)phenyl]-2-oxo-oxazolidin-5-ylmethyl]acetamide] |  |  |  |  | 200.0 | 99.1 | 12.1 | 50.0
CC(=O)c1ccc(N2CC(CNC(=O)CN)OC2=O)cc1 (stereo not drawn) [Example 176] | > 128 | 30.9 | 11.2 | 32 (≈ 110 µM) |  |  |  | 
CC(=O)c1ccc(N2CC(CNC(=O)C(F)(F)F)OC2=O)cc1 (stereo not drawn) [Example 178] | > 128 | 31.6 | 31.6 | 16 (≈ 48.4 µM) |  |  |  | 
